What was measured:
Format in all cases: cell-based
pERK = pERK AlphaLISA in MeWo cells
pMEK and pERK levels = experiment: Pathway signaling; details: A375 cells, 100 nM, 24 h
BRAF(V600E) = BRAF(V600E) (Homo sapiens, UniProt P15056, V600E); experiment: Immunoblot of BRAF protein levels in A375 cells; details: 24 h
A375 cells = experiment: RNAseq transcriptome analysis; details: 200nM, 20 hours
HCT116 cell line = experiment: Proliferation and pathway signaling; details: HCT116, KRAS(G13D)
BRAF(WT) = BRAF(WT) (Homo sapiens, UniProt P15056); experiment: Immunoblot of BRAF levels in HCT116 cells; details: KRAS(G13D), 24h
Chain of BRAF(WT) (P15056 whole entry): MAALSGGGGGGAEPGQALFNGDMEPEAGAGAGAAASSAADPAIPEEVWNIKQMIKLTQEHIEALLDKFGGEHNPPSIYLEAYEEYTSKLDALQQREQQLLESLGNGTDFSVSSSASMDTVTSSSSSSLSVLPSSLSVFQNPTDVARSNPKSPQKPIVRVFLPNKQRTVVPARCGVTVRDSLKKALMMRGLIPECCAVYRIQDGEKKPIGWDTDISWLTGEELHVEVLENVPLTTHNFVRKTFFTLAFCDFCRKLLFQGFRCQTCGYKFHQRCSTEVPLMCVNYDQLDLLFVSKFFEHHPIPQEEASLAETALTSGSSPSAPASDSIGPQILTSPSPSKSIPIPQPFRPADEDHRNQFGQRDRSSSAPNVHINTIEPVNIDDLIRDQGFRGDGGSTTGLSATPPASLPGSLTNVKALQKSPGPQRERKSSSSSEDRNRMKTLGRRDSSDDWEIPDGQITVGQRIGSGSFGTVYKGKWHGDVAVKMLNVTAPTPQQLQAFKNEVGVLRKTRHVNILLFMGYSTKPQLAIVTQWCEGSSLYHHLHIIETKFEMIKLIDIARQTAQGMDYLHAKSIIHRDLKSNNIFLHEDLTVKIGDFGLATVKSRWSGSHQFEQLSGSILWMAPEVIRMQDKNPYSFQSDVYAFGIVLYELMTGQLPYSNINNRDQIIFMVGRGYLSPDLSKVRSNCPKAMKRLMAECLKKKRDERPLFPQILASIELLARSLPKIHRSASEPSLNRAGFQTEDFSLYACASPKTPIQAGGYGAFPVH

Chain of BRAF(V600E) (P15056 whole entry V600E): as the sequence (P15056 whole entry) above, with V600E counted along it

Row | effect on BRAF protein levels (degrader function) (BRAF(V600E)) | SMILES | effect on ERK activation (pERK) (pERK) | repression of pathway signaling (pMEK and pERK levels) | reduction of BRAF(V600E) protein levels (BRAF(V600E); 100 nM) | number of genes altered (differentially expressed) (A375 cells) | inhibiting cell proliferation and pathway signaling (HCT116 cell line) | ability to reduce BRAF levels (BRAF(WT))
1 | – | CCCS(=O)(=O)Nc1ccc(F)c(-n2cc(-c3cncnc3)c3nc(N(C)C4CCN(CC)CC4)ccc32)c1F [BI 882370*] | induced paradoxical ERK activation | comparable to P4B and P5B | no effect on BRAF(V600E) levels | 195 | equally ineffective | no ability to reduce BRAF levels
2 | failed to reduce BRAF protein levels | Nc1cccc2c1C(=O)N(C1CCC(=O)NC1=O)C2=O (stereo not shown) [pomalidomide] | – | – | – | – | – | –

From article PMC7862923 (Nature chemical biology, 2020)
